A word on the IC50: it is the point on the concentration scale where inhibition reaches its midpoint. As usually defined, the clearance is a measure of how efficiently the substance is removed, as volume per time. A high value points to efficient removal. As usually defined, the half-life is the time needed for the level to fall by half in the phase considered. Read a low half-life as rapid decline. As a reminder, the AUC is the area under the concentration-time curve, a measure of exposure. Read a high AUC as more exposure. A word on the Cmax: it is the highest concentration seen after dosing.

Molecules are shown by their SMILES. Counter-ions that a name gives are not always drawn. Like-named read-outs stand apart in the source and are kept apart here. Some results are limits rather than exact numbers.

This note sets out measurements from patent EP4810494A1, “HPK1 DEGRADATION AGENT AND USE THEREOF IN FIELD OF MEDICINE” (Haisco Pharmaceutical Group Co., Ltd., priority 2023, dated 2025).

The target of one data set is T1, HPK1 protein (Homo sapiens, UniProt Q92918).
T1 construct: host or cells: Jurkat cells
T1 sequence (Q92918 whole entry): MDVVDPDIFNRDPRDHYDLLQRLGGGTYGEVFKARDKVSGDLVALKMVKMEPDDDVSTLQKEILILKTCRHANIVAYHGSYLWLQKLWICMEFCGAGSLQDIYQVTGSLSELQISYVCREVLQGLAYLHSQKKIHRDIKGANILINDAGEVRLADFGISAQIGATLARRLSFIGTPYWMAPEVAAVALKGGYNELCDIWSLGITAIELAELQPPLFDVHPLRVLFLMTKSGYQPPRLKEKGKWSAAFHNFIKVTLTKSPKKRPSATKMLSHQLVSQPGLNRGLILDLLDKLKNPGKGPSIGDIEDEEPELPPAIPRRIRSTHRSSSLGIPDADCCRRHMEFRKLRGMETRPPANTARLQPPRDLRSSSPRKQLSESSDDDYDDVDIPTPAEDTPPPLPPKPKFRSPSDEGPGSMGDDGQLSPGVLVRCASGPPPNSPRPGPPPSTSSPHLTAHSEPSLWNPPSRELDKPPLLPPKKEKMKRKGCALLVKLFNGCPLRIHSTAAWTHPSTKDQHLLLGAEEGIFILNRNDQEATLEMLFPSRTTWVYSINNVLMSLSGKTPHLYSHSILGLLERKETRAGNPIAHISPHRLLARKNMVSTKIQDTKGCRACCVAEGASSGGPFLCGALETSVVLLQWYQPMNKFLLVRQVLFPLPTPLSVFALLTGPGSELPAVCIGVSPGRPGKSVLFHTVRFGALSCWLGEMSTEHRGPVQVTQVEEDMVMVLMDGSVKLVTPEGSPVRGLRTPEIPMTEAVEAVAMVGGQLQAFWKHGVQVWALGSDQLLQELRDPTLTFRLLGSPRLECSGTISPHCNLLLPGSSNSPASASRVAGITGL
The data set can be described thus: Detection of HPK1 protein expression level in Jurkat cells (24 h). The class given is cell-based. The following applies: 24 hours incubation. On the procedure: Test example 4: Detection of HPK1 protein expression level in Jurkat cells (24 h)
Jurkat cells from ATCC were placed in a RPMI-1640 complete medium (supplemented with 10% FBS and 1% penicillin-streptomycin solution) and cultured at 37°C and 5% CO2. The cells in the logarithmic growth phase were collected, the cell density was adjusted to 5 × 10^5 cells/well with the culture medium, and the cells were added to a 6-well cell culture plate at a volume of 1 mL/well. The compound to be tested was prepared to 2-fold the final concentration, 1 mL of the compounds at different concentrations were added to administration wells, a medium containing 0.2% DMSO was added to control wells, and the plate was incubated at 37°C and 5% CO2 for 24 hours. The cells were collected into a 1.5 mL centrifuge tube, 30 µL of RIPA lysis buffer (containing 1X protease inhibitor cocktail) was added, and the cells were lysed on ice for 15 minutes and centrifuged at 12000 rpm/min at 4°C for 10 minutes. The supernatant was collected and the protein content was determined using the BCA method. The protein sample to be tested was diluted to 0.2 mg/mL, HPK1 was detected using a fully automated protein expression quantitative analyser (ProteinSimple), and the internal reference protein was β-actin (all antibodies were from CST). The software (Compass for SW) of the fully automated protein expression quantitative analyser was used to process the raw data and calculate the peak area after internal reference normalisation and the HPK1 degradation rate relative to the control group. The HPK1 degradation rate was calculated according to formula 4-1, where Aadministration well is the relative peak area of the administration group after internal reference normalisation, and Acontrol well is the relative peak area of the vehicle control group after internal reference normalisation. DC50 values were calculated using a four-parameter non-linear fitting model in Graphpad 8.3.0 software. HPK1_degradation % = 100−(Aadministration well/Acontrol well×100%) [formula] Table 4-1 Degradation activity of test compounds against HPK1 protein in Jurkat cells (24 h)

Another data set deals with T2, HPK1 kinase (Homo sapiens, UniProt Q92918).
T2 construct: purchased Carna 07-410
T2 sequence (Q92918 1-346 limits assumed): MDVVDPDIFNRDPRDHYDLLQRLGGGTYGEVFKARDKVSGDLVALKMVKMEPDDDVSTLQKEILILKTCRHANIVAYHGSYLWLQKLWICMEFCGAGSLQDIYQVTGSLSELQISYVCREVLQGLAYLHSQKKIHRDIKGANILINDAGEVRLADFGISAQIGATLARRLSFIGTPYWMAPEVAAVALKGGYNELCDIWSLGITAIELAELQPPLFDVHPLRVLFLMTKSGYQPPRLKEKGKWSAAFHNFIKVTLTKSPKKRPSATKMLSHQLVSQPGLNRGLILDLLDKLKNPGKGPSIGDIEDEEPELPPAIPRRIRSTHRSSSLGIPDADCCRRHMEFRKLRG
The data set can be described thus: HPK1 kinase assay (1 mM ATP). In kind it is biochemical. The method, then:
Test example 5: HPK1 kinase assay (1 mM ATP)
The kinase HPK1 (Carna, Cat.No 07-410) was prepared into 2× kinase solution using 1× kinase buffer. The substrate Fluorescein-PKC (Invitrogen, Cat. No. PV3506) and ATP (working concentration: 1 mM) (Sigma, Cat. No. 2383-5G) were prepared into 2× substrate solution using 1×kinase buffer. The detection reagent was diluted to 2-fold the final concentration using an antibody diluent. 100 nL of compounds at different concentrations and 5 µL of kinase solution were added to each well of a 384-well plate, and the mixture was incubated at room temperature for 10 minutes. After the incubation was completed, 5 µL of substrate solution was added to each well, and the resulting mixture was reacted at room temperature for 90 minutes. After the reaction was completed, 10 µL of detection reagent was added to each well to terminate the reaction, and the mixture was incubated at room temperature for 60 minutes. Fluorescence readings were detected using an Envision instrument with excitation at 320 nm and emission at 520 nm and 495 nm. IC50 value was calculated using XLFit excel add-in version 5.4.0.8 software. The calculation formula of the inhibition rate was shown in formula 5-1, wherein max is the Ratio of the DMSO control, min is the Ratio of the negative control without enzyme, and sample is the Ratio of the compound. Ratio = RFU520nm /RFU495nm [formula] Inhibition% = (max−sample)/(max−min) × 100% [formula] Table 5-1 Inhibitory activity of test compounds against HPK1 kinase

Data set [1] is described as follows: Pharmacokinetic test in mice. The class given is in vivo, ICR mice. The following applies: mouse, plasma. On the procedure:
Test example 6: Pharmacokinetic test in mice
Experimental objective: In this experiment, a single dose of test substances was administered to ICR mice intravenously and intragastrically, the concentrations of the test compounds in plasma of mice were measured, and the pharmacokinetic characteristics and bioavailability of the test compounds in mice were evaluated.
Experimental animals: Male ICR mice, 20-35 g, purchased from Chengdu Dossy Experimental Animals Co., Ltd. (SCXK (CHUAN) 2020-030).
Experimental method: On the day of the experiment, the ICR mice were randomly grouped according to their body weights. The animals were fasted but with water available overnight before the administration, and fed 4 h after the administration.
Sampling: Blood was taken from the orbits of the mice at specified time points, and placed in an EDTAK2 centrifuge tube. Centrifugation was performed at 5000 rpm at 4°C for 10 min, and the plasma was collected.
Time points for plasma collection in G1 and G1-2 groups: 0, 5 min, 15 min, 30 min, 1 h, 2 h, 4 h, 7 h, and 24 h.
Time points for plasma collection in G2 and G2-2 groups: 0, 5 min, 15 min, 30 min, 1 h, 2 h, 4 h, 7 h, and 24 h.
Before analysis and detection, all the samples were stored at -60°C or lower. The samples were analysed quantitatively by LC-MS/MS. Table 6-1 PK data of test compound drug in mice

[2] abbreviates: ATP working concentration: 1 mM.
The mark [3] stands for this setting: ATP working concentration: 1 mM, read-out: IC50.

In the case of `CN(C)Cc1nc(Nc2ccc(-c3cnc4cc(F)ccn34)c3c2C(=O)NC3)ccc1C1CCN(CC2CCN(c3ccc(N4CCC(=O)NC4=O)c(F)c3)CC2)CC1` [Trifluoroacetic acid salt of compound 9], at HPK1 protein, the DC50 was below 20 nM. Also, the IC50 against HPK1 kinase is below 50 nM.

In the case of `O=C1CC[C@H](NC(=O)c2cc3c(cc2F)N2CCN(C4CC5(CCN(c6ccc(Nc7ccc(-c8cnc9cc(F)ccn89)c8c7C(=O)NC8)nc6)CC5)C4)C[C@@H]2CC3)C(=O)N1` [Trifluoroacetic acid salt of compound 33], the 50% inhibitory concentration (IC50) on HPK1 kinase (setting [2]) was below 50 nM.

`O=C1CCN(c2cc3c(cc2F)N2CCN(C4CCC5(CC4)CCN(c4ccc(Nc6ccc(-c7cnc8cc(F)ccn78)c7c6C(=O)NC7)nc4)CC5)C[C@@H]2CC3)C(=O)N1` [Trifluoroacetic acid salt of compound 47] had an IC50 against HPK1 kinase (setting [2]) below 50 nM.

At HPK1 kinase, `O=C1CCC(c2ccc(N3CCC(CN4CCC(c5ccc(Nc6ccc(-c7cnc8cc(F)ccn78)c7c6C(=O)NC7)nc5)CC4)CC3)cc2F)C(=O)N1` (centres unmarked) [Trifluoroacetic acid salt of compound 17] registered a half-inhibitory concentration (IC50) below 50 nM.

`N#Cc1ccn2c(-c3ccc(Nc4ccc(N5CCC(N6CCN7c8cc(F)c(N9CCC(=O)NC9=O)cc8CC[C@H]7C6)CC5)cn4)c4c3CNC4=O)cnc2c1` [Trifluoroacetic acid salt of compound 45] registered a half-inhibitory concentration (IC50) against HPK1 kinase below 50 nM.

Regarding `CN(C)Cc1nc(Nc2ccc(-c3cnc4cc(F)ccn34)c3c2C(=O)NC3)ccc1C1CCN(CC2(F)CCN(c3ccc(N4CCC(=O)NC4=O)c(F)c3)CC2)CC1` [Compound 38], the IC50 on HPK1 kinase (setting [3]) was below 50 nM.

Take `O=C1CCC(c2ccc(N3CCN(CC4CCN(c5ccc(Nc6ccc(-c7cnc8cc(F)ccn78)c7c6C(=O)NC7)nc5)CC4)CC3)cc2F)C(=O)N1` (single isomer, unassigned) [Compound 1-2]: the half-inhibitory concentration (IC50) at HPK1 kinase (setting [3]) is below 50 nM.

`N#Cc1ccn2c(-c3ccc(Nc4ccc(N5CCC6(CCC(N7CCN8c9cc(F)c(N%10CCC(=O)NC%10=O)cc9CC[C@@H]8C7)CC6)CC5)cn4)c4c3CNC4=O)cnc2c1` [Trifluoroacetic acid salt of compound 46] showed an IC50 at HPK1 kinase (setting [2]) below 50 nM.

The molecule `CN(C)Cc1nc(Nc2ccc(-c3cnc4cc(F)ccn34)c3c2C(=O)NC3)ccc1N1CCC(CN2CCN3c4cc(F)c(N5CCC(=O)NC5=O)cc4CC[C@H]3C2)CC1` [Trifluoroacetic acid salt of compound 10] showed an IC50 at HPK1 kinase (setting [2]) below 50 nM.

As for `N#Cc1ccn2c(-c3ccc(Nc4ccc(N5CCC6(CC5)CC(N5CCN7c8cc(F)c(N9CCC(=O)NC9=O)cc8CC[C@H]7C5)C6)cn4)c4c3CNC4=O)cnc2c1` [Trifluoroacetic acid salt of compound 43], on HPK1 kinase (setting [2]), the IC50 was below 50 nM.

Consider `O=C1CCN(c2cc3c(cc2F)N2CCN(CC4CN(c5ccc(Nc6ccc(-c7cnc8cc(F)ccn78)c7c6C(=O)NC7)nc5)C4)C[C@@H]2CC3)C(=O)N1` [Trifluoroacetic acid salt of compound 22], for which the IC50 on HPK1 kinase was below 50 nM.

On HPK1 kinase (setting [2]), `O=C1CCN(c2cc3c(cc2F)N2CCN(CC4CCN(c5ccc(Nc6ccc(-c7cnc8cc(F)ccn78)c7c6C(=O)NC7)nc5CN5CC(F)(F)C5)CC4)C[C@@H]2CC3)C(=O)N1` [Trifluoroacetic acid salt of compound 24] came in with an IC50 below 50 nM.

In the case of `CN(C)Cc1nc(Nc2ccc(-c3cnc4cc(F)ccn34)c3c2C(=O)NC3)ccc1N1CCC(CN2CCN3c4cc(F)c(N5CCC(=O)NC5=O)cc4CC[C@@H]3C2)CC1` [Trifluoroacetic acid salt of compound 11], the IC50 against HPK1 kinase (setting [2]) is below 50 nM.

Turning to `O=C1CCN(c2ccc(N3CCC(CN4CCC(c5ccc(Nc6ccc(-c7cnc8cc(F)ccn78)c7c6C(=O)NC7)nc5)CC4)CC3)cc2F)C(=O)N1` [Trifluoroacetic acid salt of compound 18], at HPK1 kinase, the IC50 is below 50 nM.

As to `N#Cc1ccn2c(-c3ccc(Nc4ccc(N5CCC6(CC5)CC(N5CCN7c8cc(F)c(N9CCC(=O)NC9=O)cc8CC[C@@H]7C5)C6)cn4)c4c3CNC4=O)cnc2c1` [Compound 48], in data set [1] (IV, 1 mg/kg), the clearance is 1.67 mL/min/kg and the half-life was 5.3 h. Also, in data set [1] (po, i. g., 10 mg/kg), the AUC worked out at 25900 ng·h/mL, the Cmax was determined as 2300 ng/mL and the half-life is 4.9 h. This molecule also came in with an IC50 against HPK1 kinase (setting [2]) below 50 nM.

Regarding `O=C1CCN(c2cc3c(cc2F)N2CCN(CC4CCN(c5ccc(Nc6ccc(-c7cnc8cc(F)ccn78)c7c6C(=O)NC7)nc5CN5CCC(F)(F)C5)CC4)C[C@H]2CC3)C(=O)N1` [Trifluoroacetic acid salt of compound 28], on HPK1 kinase (setting [2]), the concentration for half-maximal inhibition (IC50) was below 50 nM.

Molecule `O=C1CCN(c2cc3c(cc2F)N2CCN(C4CCC5(CC4)CCN(c4ccc(Nc6ccc(-c7cnc8cc(F)ccn78)c7c6C(=O)NC7)nc4)CC5)C[C@H]2CC3)C(=O)N1` [Trifluoroacetic acid salt of compound 44] yielded an IC50 at HPK1 kinase (setting [2]) below 50 nM.

Turning to `CN(C)Cc1nc(Nc2ccc(-c3cnc4cc(F)ccn34)c3c2C(=O)NC3)ccc1N1CCC(CN2CCN(c3ccc(N4CCC(=O)NC4=O)c(F)c3)CC2)CC1` [Trifluoroacetic acid salt of compound 12], the IC50 against HPK1 kinase was below 50 nM.

As for `O=C1CCN(c2cc3c(cc2F)N2CCN(CC4CCN(c5ccc(Nc6ccc(-c7cnc8cc(F)ccn78)c7c6C(=O)NC7)nc5CN5CC[C@H](F)C5)CC4)C[C@H]2CC3)C(=O)N1` [Trifluoroacetic acid salt of compound 29], the IC50 against HPK1 kinase (setting [2]) was below 50 nM.

`O=C1CCN(c2cc3c(cc2F)N2CCN(CC4CCN(c5ccc(Nc6ccc(-c7cnc8cc(F)ccn78)c7c6C(=O)NC7)nc5CN5CCC(F)(F)C5)CC4)CC2CC3)C(=O)N1` (centres unmarked) [Trifluoroacetic acid salt of compound 25] gave an IC50 at HPK1 kinase (setting [2]) below 50 nM.

Consider `O=C1CCN(c2cc3c(cc2F)N2CCN(CC4CCN(c5ccc(Nc6ccc(-c7cnc8cc(F)ccn78)c7c6C(=O)NC7)nc5CN5CC(F)(F)C5)CC4)C[C@H]2CC3)C(=O)N1` [Trifluoroacetic acid salt of compound 23], for which, at HPK1 kinase (setting [2]), the half-maximal inhibitory concentration (IC50) is below 50 nM.

At HPK1 kinase, `O=C1CCN(c2cc3c(cc2F)N2CCN(CC4CN(c5ccc(Nc6ccc(-c7cnc8cc(F)ccn78)c7c6C(=O)NC7)nc5)C4)C[C@H]2CC3)C(=O)N1` [Trifluoroacetic acid salt of compound 21] yielded a 50% inhibitory concentration (IC50) below 50 nM.

As for `O=C1CCN(c2cc3c(cc2F)N2CCN(CC4CCN(c5ccc(Nc6ccc(-c7cnc8cc(F)ccn78)c7c6C(=O)NC7)nc5CN5CC[C@@H](F)C5)CC4)C[C@H]2CC3)C(=O)N1` [Trifluoroacetic acid salt of compound 30], the IC50 against HPK1 kinase (setting [2]) is below 50 nM.
